According to patent US20180282323A1, “Mesoionic imidazole derivatives as insecticides” (BAYER CROPSCIENCE AKTIENGESELLSCHAFT, priority 2015, published 2018):
Where two headings read alike, the source gives them in different places.

What was measured:
Myzus persicae = Myzus persicae oral test; assay type: in vivo; details: application rate 20 ppm, oral uptake through parafilm, after 5 days
Procedure: Myzus persicae—Oral Test Solvent: 100 parts by weight of acetone
To produce an appropriate active ingredient formulation, 1 part by weight of active ingredient is dissolved with the stated parts by weight of solvent and made up with water until the desired concentration is attained.
50 μl of the active ingredient formulation are transferred into microtitre plates and made up to a final volume of 200 μl with 150 μl of IPL41 insect medium (33%+15% sugar). Subsequently, the plates are sealed with parafilm, which a mixed population of green peach aphids (Myzus persicae) within a second microtitre plate is able to puncture and imbibe the solution through it.
After 5 days, the efficacy in % is determined. 100% means that all the aphids have been killed; 0% means that no aphids have been killed.

[1] = log P by HPLC on reversed-phase column (EEC directive 79/831 Annex V.A8); assay type: physicochemical; details: for log p a): HPLC on reversed-phase column
Procedure: a) The determination of the [M+H]^+ by LC-MS in the acidic range was effected at pH 2.7, with acetonitrile (containing 0.1% formic acid) and water as eluents; linear gradient from 10% acetonitrile to 95% acetonitrile, instrument: Agilent 1100 LC system, Agilent MSD system, HTS PAL.
The log P values reported in the tables and preparation examples above were determined in accordance with EEC directive 79/831 Annex V.A8 by HPLC (High Performance Liquid Chromatography) using a reversed-phase column (C18). Temperature 43° C.

[2] = HPLC on reversed-phase column (footnote a)

| SMILES | efficacy (Myzus persicae) | log p [1, 2] | log p a) [1] | other results |
| --- | --- | --- | --- | --- |
| CC(C)NC(=O)c1c([O-])n(Cc2cnc(Cl)s2)c2cccc[n+]12 [Example I-1-131] | 100% | 1.95 | – | – |
| CC(c1ccc(Cl)nc1)n1c([O-])c(C(=O)NCC(F)(F)F)[n+]2ccccc12 (stereo not drawn) [Example I-1-241] | 100% | – | 2.2 | – |
| Cc1ccc[n+]2c(C(=O)Nc3c(F)cccc3F)c([O-])n(C(C)c3ccc(Cl)nc3)c12 (racemic) [Example I-1-275] | 100% | – | 2.67 | – |
| O=C(CCl)c1c([O-])n(Cc2cnc(Cl)s2)c2scc[n+]12 [Example I-5-002] | 100% | – | – | log p^a) ([1]; Table 3; HPLC reversed-phase C18, 43° C.; footnote a) acidic range pH 2.7): 1.46 |
| Cc1ccc[n+]2c(C(=O)NC3CC3)c([O-])n(Cc3ccc(F)nc3)c12 [Example I-1-222] | 100% | – | 1.58 | – |
| CC(c1ccc(Cl)nc1)n1c([O-])c(C(=O)NCC2CC2)[n+]2ccccc12 (stereo not drawn) [Example I-1-250] | 100% | – | 2.12 | – |
| COc1cccc(NC(=O)c2c([O-])n(Cc3ccc(Cl)nc3)c3cccc[n+]23)c1 [Example I-1-299] | 100% | – | 2.55 | – |
| Cc1ccc[n+]2c(C(=O)NCC(C)C)c([O-])n(Cc3ccc(Cl)nc3)c12 [Example I-1-191] | 90% | 2.33 | – | – |
| CCNC(=O)c1c([O-])n(Cc2cnc(Cl)cn2)c2cccc[n+]12 [Example I-1-278] | 100% | – | 1.51 | – |
| O=C(COCc1ccc(F)cc1)c1c([O-])n(Cc2cnc(Cl)s2)c2cccc[n+]12 [Example I-1-055] | 100% | 2.41 | – | – |
| O=C(NC1CC1)c1c([O-])n(Cc2cncc(Cl)c2)c2cccc[n+]12 [Example I-1-195] | 90% | 1.52 | – | – |
| O=C(Nc1ccccc1Cl)c1c([O-])n(Cc2cnc(Cl)s2)c2cccc[n+]12 [Example I-1-234] | 100% | – | 3.29 | – |
| O=C(Nc1cc(F)ccc1F)c1c([O-])n(Cc2cnc(Cl)s2)c2cccc[n+]12 [Example I-1-306] | 100% | – | 3.23 | – |
| O=C(COc1ccc(Cl)nc1)c1c([O-])n(Cc2cnc(Cl)s2)c2cccc[n+]12 [Example I-1-084] | 100% | 2.17 | – | – |
| Cc1ccc[n+]2c(C(=O)Cn3cccn3)c([O-])n(Cc3cnc(Cl)s3)c12 [Example I-1-251] | 100% | – | 1.69 | – |
| COC(=O)c1c([O-])n(Cc2cnc(Cl)s2)c2cccc(Cl)[n+]12 [Example I-1-121] | 100% | 1.32 | – | – |
| Cc1ccc[n+]2c(C(=O)Nc3ccc(F)cc3)c([O-])n(Cc3ccc(Cl)nc3)c12 [Example I-1-219] | 100% | – | 2.9 | – |
| O=C(Cn1ccc(C(F)(F)F)n1)c1c([O-])n(Cc2cnc(Cl)s2)c2cccc[n+]12 [Example I-1-057] | 90% | 2.44 | – | – |
| CCN(CC(=O)c1c([O-])n(Cc2ccc(Cl)nc2)c2cccc[n+]12)C(C)=O [Example I-1-071] | 90% | 1.4 | – | – |
| CCCNC(=O)c1c([O-])n(C(C)c2ccc(Cl)nc2)c2cccc[n+]12 (stereo not drawn) [Example I-1-249] | 100% | – | 2.02 | – |
| O=C(Cn1ccnn1)c1c([O-])n(Cc2cnc(Cl)s2)c2cccc[n+]12 [Example I-1-064] | 100% | 1.18 | – | – |
| CSCC(=O)c1c([O-])n(Cc2cncnc2)c2cccc[n+]12 [Example I-1-077] | 100% | 0.79 | – | – |
| Cc1cccc2n(Cc3cnc(Cl)s3)c([O-])c(C(=O)NC3CC3)[n+]12 [Example I-1-190] | 100% | 1.16 | – | – |

| SMILES | efficacy (Myzus persicae) | log p [1, 2] | log p a) [1] | other results |
| --- | --- | --- | --- | --- |
| COC(=O)c1c([O-])n(Cc2ccc(Cl)nc2)c2cccc(C)[n+]12 [Example I-1-157] | 100% | 1.27 | – | – |
| CCN(CC(=O)c1c([O-])n(Cc2cnc(Cl)s2)c2cccc[n+]12)C(C)=O [Example I-1-040, 3-(N-Acetyl-N-ethylglycyl)-1-[(2-chloro-1,3-thiazol-5-yl)methyl]-1H-imidazo[1,2-a]pyridin-4-ium-2-olate] | – | – | – | pest or weed control at 20 ppm (Myzus persicae; Myzus persicae, 120 h, read-out: efficacy): 100%; chromatographic logP ([1]; reversed-phase C18 HPLC column, pH 2.7, HPLC on reversed-phase column (footnote a), read-out: log p): 1.49; chromatographic logP ([1]; reversed-phase C18 HPLC column, HPLC-MS, reversed-phase C18, 43° C., calibration with alkan-2-ones, read-out: log P): 1.49 |
| COCC(=O)c1c([O-])n(Cc2ccc(Cl)nc2)c2c(F)ccc[n+]12 [Example I-1-205] | 100% | – | 1.44 | – |
| C[S+]([O-])CC(=O)c1c([O-])n(Cc2cnc(Cl)s2)c2cccc[n+]12 (stereo not drawn) [Example I-1-039] | 100% | 1.08 | – | – |
| CCOCC(=O)c1c([O-])n(C(C)c2ccc(Cl)nc2)c2cccc[n+]12 (stereo not drawn) [Example I-1-186] | 100% | 1.58 | – | – |
| N#Cc1cnn(CC(=O)c2c([O-])n(Cc3ccc(Cl)nc3)c3cccc[n+]23)c1 [Example I-1-060] | 100% | 1.55 | – | – |
| Cc1ccc[n+]2c(C(=O)NC3CC3)c([O-])n(C(C)c3ccc(Cl)nc3)c12 (racemic) [Example I-1-259] | 90% | – | 1.96 | – |
| N#Cc1cnn(CC(=O)c2c([O-])n(Cc3cncnc3)c3cccc[n+]23)c1 [Example I-1-065] | 100% | 0.73 | – | – |
| CCNCC(=O)c1c([O-])n(Cc2cnc(Cl)s2)c2cccc[n+]12 [Example I-1-021, 1-[(2-Chloro-1,3-thiazol-5-yl)methyl]-3-(N-ethylglycyl)-1H-imidazo[1,2-a]pyridin-4-ium-2-olate] | – | – | – | chromatographic logP [1]: 0.57; chromatographic logP ([1]; pH 2.7): 0.57 |
| O=C(Nc1ncccc1Br)c1c([O-])n(Cc2cnc(Cl)s2)c2cccc[n+]12 [Example I-1-335] | – | – | 1.58 | – |
| COCC(=O)c1c([O-])n(Cc2ccc(Cl)nc2)c2cc(C(F)(F)F)cc[n+]12 [Example I-1-069] | – | 1.99 | – | – |
| Cc1ccc[n+]2c(C(=O)Nc3ccc(Cl)cc3)c([O-])n(Cc3ccc(Cl)nc3)c12 [Example I-1-187] | – | 3.41 | – | – |
| COC(=O)c1c([O-])n(Cc2ccc(Cl)nc2)c2c(C)ccc[n+]12 [Example I-1-183] | – | 1.66 | – | – |
| Cc1cnc(NC(=O)c2c([O-])n(Cc3ccc(Cl)nc3)c3cccc[n+]23)s1 [Example I-1-327] | – | – | 2.17 | – |
| O=C(CCl)c1c([O-])n(Cc2cnc(Cl)s2)c2cc(Cl)cc[n+]12 [Example I-1-120] | – | 2.17 | – | – |
| O=C(Nc1ccc(Cl)cc1)c1c([O-])n(Cc2cnc(Cl)s2)c2cccc[n+]12 [Example I-1-150] | – | 3.39 | – | – |
| COCC(=O)c1c([O-])n(Cc2cnc(Cl)s2)c2cc(Cl)cc[n+]12 [Example I-1-123] | – | 1.90 | – | – |
| CSc1ccc[n+]2c(C(=O)NC3CC3)c([O-])n(Cc3ccc(Cl)nc3)c12 [Example I-1-204] | – | – | 2.05 | – |
| Cn1ncc(Br)c1NC(=O)c1c([O-])n(Cc2cnc(Cl)s2)c2cccc[n+]12 [Example I-1-332] | – | – | 1.99 | – |
| COC(=O)COCC(=O)c1c([O-])n(Cc2ccc(Cl)nc2)c2cccc[n+]12 [Example I-1-030] | – | 1.31 | – | – |
| O=C(Nc1ccc(Cl)nc1)c1c([O-])n(Cc2cnc(Cl)s2)c2cccc[n+]12 [Example I-1-153] | – | 3.06 | – | – |
| Clc1ccc(CNc2ncccn2)cn1 [N-[(6-chloropyridin-3-yl)methyl]pyrimidin-2-amine] | – | – | – | chromatographic logP [1]: 1.36 |
